According to PubChem BioAssay AID256 (DTP/NCI, 2004):
Where “and” joins values, the source holds several entries; their conditions need not be identical. Equal entries are not always repeated. Toxic doses and inconclusive results are not listed. The calls were made as follows: active = survival T/C of 150% or more; inactive = T/C below 125% in these data.

Tested on: CD2F1 mice, L1210 leukemia ip, survival T/C
Assay: NCI In Vivo Anticancer Drug Screen. Data for tumor model L1210 Leukemia (intraperitoneal) in CD2F1 (CDF1) mice
Details: higher = longer survival
How it was run: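 Tumor-bearing mice (transplanted tumor) were split into treated and vehicle control groups, and the measured endpoint of each treated group was divided by that of its vehicle controls.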

[1] = endpoint: mean survival time, dose: 100.0 mg/kg/injection, schedule: Q01DX009 (ip), vehicle: other
[2] = endpoint: mean survival time, dose: 100.0 mg/kg/injection, schedule: Q01DX001 (ip), vehicle: saline with Tween-80
[3] = endpoint: mean survival time, dose: 200.0 mg/kg/injection, schedule: Q01DX001 (ip), vehicle: saline with Tween-80
[4] = endpoint: mean survival time, dose: 400.0 mg/kg/injection, schedule: Q01DX001 (ip), vehicle: saline with Tween-80

Measured: T/C

Oc1ccc(SSc2ccc(O)cc2)cc1
inactive: [1] 98 % of control | endpoint: mean survival time, dose: 200.0 mg/kg/injection, schedule: Q01DX009 (ip), vehicle: other 101 % of control | endpoint: mean survival time, dose: 400.0 mg/kg/injection, schedule: Q01DX009 (ip), vehicle: other 104 % of control

O=P(OCc1ccccc1)(N(CCCl)CCCl)N1CCOCC1 (centres undefined)
inactive: endpoint: mean survival time, dose: 62.5 mg/kg/injection, schedule: Q01DX010 (ip), vehicle: saline 103 % of control | endpoint: mean survival time, dose: 125.0 mg/kg/injection, schedule: Q01DX010 (ip), vehicle: saline 101 % of control | endpoint: mean survival time, dose: 250.0 mg/kg/injection, schedule: Q01DX010 (ip), vehicle: saline 104 % of control

CCN(C(=O)Nc1ccccc1Cl)c1ccccc1
inactive: endpoint: mean survival time, dose: 75.0 mg/kg/injection, schedule: Q04DX003 (ip), vehicle: saline with Tween-80 102 % of control | endpoint: mean survival time, dose: 150.0 mg/kg/injection, schedule: Q04DX003 (ip), vehicle: saline with Tween-80 101 % of control | endpoint: mean survival time, dose: 300.0 mg/kg/injection, schedule: Q04DX003 (ip), vehicle: saline with Tween-80 98 % of control

Cc1cn(C2OC3COC2C3O)c(=O)[nH]c1=O (centres undefined)
inactive: endpoint: median survival time, dose: 12.5 mg/kg/injection, schedule: Q01DX005 (ip), vehicle: saline with Tween-80 97 % of control | endpoint: median survival time, dose: 25.0 mg/kg/injection, schedule: Q01DX005 (ip), vehicle: saline with Tween-80 97 % of control | endpoint: median survival time, dose: 50.0 mg/kg/injection, schedule: Q01DX005 (ip), vehicle: saline with Tween-80 94 % of control | endpoint: median survival time, dose: 100.0 mg/kg/injection, schedule: Q01DX005 (ip), vehicle: saline with Tween-80 102 % of control | endpoint: median survival time, dose: 200.0 mg/kg/injection, schedule: Q01DX005 (ip), vehicle: saline with Tween-80 105 % of control

COc1ccc2nc3cc(Cl)ccc3c(Nc3ccc(NC(C)=O)cc3)c2n1
inactive: endpoint: mean survival time, dose: 25.0 mg/kg/injection, schedule: Q01DX009 (ip), vehicle: other 92 % of control | endpoint: mean survival time, dose: 50.0 mg/kg/injection, schedule: Q01DX009 (ip), vehicle: other 86 % of control | [1] 94 % of control

Cc1c(N=O)c(C)[n+]([O-])n1O
inactive: endpoint: mean survival time, dose: 50.0 mg/kg/injection, schedule: Q01DX009 (ip), vehicle: Klucel (hydroxypropylcellulose) (HPC) 89 % of control | endpoint: mean survival time, dose: 100.0 mg/kg/injection, schedule: Q01DX009 (ip), vehicle: Klucel (hydroxypropylcellulose) (HPC) 97 % of control | endpoint: mean survival time, dose: 200.0 mg/kg/injection, schedule: Q01DX009 (ip), vehicle: Klucel (hydroxypropylcellulose) (HPC) 97 % of control

Nc1ccc(S(=O)(=O)c2ccc(NCC(=O)O)cc2)cc1
inactive: endpoint: mean survival time, dose: 100.0 mg/kg/injection, schedule: Q04DX003 (ip), vehicle: saline 100 % of control | endpoint: mean survival time, dose: 200.0 mg/kg/injection, schedule: Q04DX003 (ip), vehicle: saline 100 % of control | endpoint: mean survival time, dose: 400.0 mg/kg/injection, schedule: Q04DX003 (ip), vehicle: saline 100 % of control

N/C=N/O
inactive: endpoint: mean survival time, dose: 66.0 mg/kg/injection, schedule: Q01DX009 (ip), vehicle: saline 112 % of control | endpoint: mean survival time, dose: 100.0 mg/kg/injection, schedule: Q01DX009 (ip), vehicle: saline 120 % of control and 110 % of control | endpoint: mean survival time, dose: 400.0 mg/kg/injection, schedule: Q01DX009 (ip), vehicle: saline 114 % of control

Nc1cccc(CCc2ccc(-c3nc4ncnc(N)c4[nH]3)cc2)c1
inactive: [2] 86 % of control | [3] 88 % of control | [4] 93 % of control

Cc1ccc(NC(=O)COc2ccc(Cl)cc2Cl)cc1Cl
inactive: endpoint: mean survival time, dose: 100.0 mg/kg/injection, schedule: Q04DX003 (ip), vehicle: saline with Tween-80 93 % of control | endpoint: mean survival time, dose: 200.0 mg/kg/injection, schedule: Q04DX003 (ip), vehicle: saline with Tween-80 98 % of control | endpoint: mean survival time, dose: 400.0 mg/kg/injection, schedule: Q04DX003 (ip), vehicle: saline with Tween-80 88 % of control

N=[N+]=CC(=O)CC(N)C(=O)O (centres undefined)
inactive: endpoint: median survival time, dose: 400.0 mg/kg/injection, schedule: Q01DX001 (ip), vehicle: saline 111 % of control | endpoint: median survival time, dose: 800.0 mg/kg/injection, schedule: Q01DX001 (ip), vehicle: saline 112 % of control | endpoint: median survival time, dose: 1600.0 mg/kg/injection, schedule: Q01DX001 (ip), vehicle: saline 25 % of control

C=C(NC(C)=O)C(=O)O
inactive: [2] 96 % of control | endpoint: mean survival time, dose: 100.0 mg/kg/injection, schedule: Q01DX009 (ip), vehicle: saline with Tween-80 103 % of control | [3] 97 % of control | endpoint: mean survival time, dose: 200.0 mg/kg/injection, schedule: Q01DX009 (ip), vehicle: saline with Tween-80 89 % of control | [4] 97 % of control

CCC1C(=O)OCc2c1cc1n(c2=O)Cc2cc3ccccc3nc2-1 (centres undefined)
inactive: endpoint: mean survival time, dose: 7.39 mg/kg/injection, schedule: Q01DX001 (ip), vehicle: saline 101 % of control | endpoint: mean survival time, dose: 11.1 mg/kg/injection, schedule: Q01DX001 (ip), vehicle: saline 101 % of control | endpoint: mean survival time, dose: 16.6 mg/kg/injection, schedule: Q01DX001 (ip), vehicle: saline 100 % of control | endpoint: mean survival time, dose: 25.0 mg/kg/injection, schedule: Q01DX001 (ip), vehicle: saline 111 % of control
